Reference: US9102701B2, “17-hydroxy-17-pentafluoroethyl-estra-4,9(10)-diene-11-ethynylphenyl derivatives, methods for the production thereof and use thereof for treating diseases” (Bayer Intellectual Property GmbH, priority 2009, dated 2015)
Read-outs that look alike come from different tables or passages of the source.

Legend:
[1] = target: T1, human progesterone receptor A (Homo sapiens, UniProt P06401); test: Progesterone receptor-antagonistic action in stably transfected SK-N-MC cells, PR-A, MMTV-LUC reporter; format: cell-based
T1 construct: expressed in transfected cells; host or cells: SK-N-MC human neuroblastoma cells, stably transfected with pRChPR-A-neo and pMMTV-LUC
T1 sequence (P06401 1-769 isoform P06401-2): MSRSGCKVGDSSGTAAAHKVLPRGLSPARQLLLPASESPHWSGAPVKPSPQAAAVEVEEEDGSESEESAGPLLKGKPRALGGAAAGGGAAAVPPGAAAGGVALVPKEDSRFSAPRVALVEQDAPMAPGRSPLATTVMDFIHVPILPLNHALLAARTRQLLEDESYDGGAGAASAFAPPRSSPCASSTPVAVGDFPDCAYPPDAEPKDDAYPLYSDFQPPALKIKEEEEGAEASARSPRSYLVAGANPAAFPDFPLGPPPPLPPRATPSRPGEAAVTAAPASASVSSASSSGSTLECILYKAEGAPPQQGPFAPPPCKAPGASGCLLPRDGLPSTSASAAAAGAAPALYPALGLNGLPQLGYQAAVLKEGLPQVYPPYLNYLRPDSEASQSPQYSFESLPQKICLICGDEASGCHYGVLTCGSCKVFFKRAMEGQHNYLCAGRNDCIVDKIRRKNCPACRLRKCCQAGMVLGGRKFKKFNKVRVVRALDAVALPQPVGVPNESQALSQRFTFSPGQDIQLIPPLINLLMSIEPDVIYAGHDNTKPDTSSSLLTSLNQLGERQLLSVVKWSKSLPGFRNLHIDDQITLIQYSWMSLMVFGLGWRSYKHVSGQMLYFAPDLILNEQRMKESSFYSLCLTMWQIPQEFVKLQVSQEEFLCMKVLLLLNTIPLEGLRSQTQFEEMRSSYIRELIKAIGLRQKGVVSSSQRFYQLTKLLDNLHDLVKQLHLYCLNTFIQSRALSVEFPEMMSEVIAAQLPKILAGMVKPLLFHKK
Method: (§1) Determination of Progesterone Receptor-Antagonistic Action in Stable Transfectants of Human Neuroblastoma Cells (SK-N-MC Cells) with the Human Progesterone a or Progesterone B Receptor and an MN-LUC Reporter Construct
(§2) SK-N-MC cells (human neuroblastoma cells) which have been stably transfected with plasmids expressing the human progesterone receptor B (pRChPR-B-neo) or the human progesterone receptor A (pRChPR-A-neo) and a reporter construct (pMMTV-LUC) were incubated for 24 hours either in the absence (negative control) or in the presence of ascending amounts of the particular test compound (0.01 nmol/l, 0.1 nmol/l, 1 nmol/l, 10 nmol/l, 100 nmol/l and […]), in order to determine the agonistic efficacy. As a positive control of the reporter gene induction, the cells were treated with the synthetic gestagen promegestone (0.01 nmol/l, 0.1 nmol/l, 1 nmol/l, 10 nmol/l, 100 nmol/l and […]). To determine the antagonistic activity, the cells were treated with 0.1 nmol/l promegestone and additionally with ascending amounts of the particular test compound (0.01 nmol/l, 0.1 nmol/l, 1 nmol/l, 10 nmol/l, 100 nmol/l and […]). The activity of the reporter gene LUC (LUC=luciferase) was determined in the cell lysates and measured as RLU (relative light units). All measurements are reported as % efficacy and as EC50 and IC50 concentrations.

[2] = target: T2, human progesterone receptor B (Homo sapiens, UniProt P06401); test: Progesterone receptor-antagonistic action in stably transfected SK-N-MC cells, PR-B, MMTV-LUC reporter; format: cell-based
T2 construct: expressed in transfected cells; host or cells: SK-N-MC human neuroblastoma cells, stably transfected with pRChPR-B-neo and pMMTV-LUC
T2 sequence (P06401 1-933): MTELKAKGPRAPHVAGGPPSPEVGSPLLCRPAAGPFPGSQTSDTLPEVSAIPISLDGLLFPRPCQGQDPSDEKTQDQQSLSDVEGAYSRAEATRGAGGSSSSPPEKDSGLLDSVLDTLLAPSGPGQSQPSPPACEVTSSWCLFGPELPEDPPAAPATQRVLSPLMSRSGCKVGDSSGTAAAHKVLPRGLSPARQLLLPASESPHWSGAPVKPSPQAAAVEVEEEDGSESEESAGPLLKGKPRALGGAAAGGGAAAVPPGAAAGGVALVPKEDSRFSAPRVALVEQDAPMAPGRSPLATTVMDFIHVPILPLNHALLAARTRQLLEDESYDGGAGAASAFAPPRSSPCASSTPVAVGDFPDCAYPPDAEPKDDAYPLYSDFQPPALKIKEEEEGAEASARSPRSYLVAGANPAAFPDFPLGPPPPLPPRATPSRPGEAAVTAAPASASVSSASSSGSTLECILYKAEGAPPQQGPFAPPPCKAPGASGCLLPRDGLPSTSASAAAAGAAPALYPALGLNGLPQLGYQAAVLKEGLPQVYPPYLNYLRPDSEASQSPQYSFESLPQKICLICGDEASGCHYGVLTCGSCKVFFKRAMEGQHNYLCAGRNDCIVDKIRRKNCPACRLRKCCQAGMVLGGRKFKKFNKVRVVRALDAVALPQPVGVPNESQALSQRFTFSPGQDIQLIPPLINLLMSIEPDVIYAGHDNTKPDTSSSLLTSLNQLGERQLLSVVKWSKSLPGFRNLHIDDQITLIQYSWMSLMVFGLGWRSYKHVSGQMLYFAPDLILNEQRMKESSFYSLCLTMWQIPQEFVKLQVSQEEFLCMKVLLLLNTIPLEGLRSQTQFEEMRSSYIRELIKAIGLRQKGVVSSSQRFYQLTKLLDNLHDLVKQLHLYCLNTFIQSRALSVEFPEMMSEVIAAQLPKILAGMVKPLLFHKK
Method: as §1, §2

Row | IC50 ([1]; read-out: IC50 PR-A) | IC50 ([2]; read-out: IC50 PR-B) | Compound | IC50 [1] | IC50 [2]
1 | 1 nM | 2 nM | COC(=O)c1cccc(C=CC#Cc2ccc([C@H]3C[C@@]4(C)C(CC[C@@]4(O)C(F)(F)C(F)(F)F)C4CCC5=CC(=O)CCC5=C43)cc2)c1 (mixture of isomers) [Example 12, 3-{(E/Z)-4-[4-((8S,11R,13S,14S,17S)-17-hydroxy-13-methyl-3-oxo-17-pentafluoroethyl-2,3,6,7,8,11,12,13,14,15,16,17-dodecahydro-1H-cyclopenta[a]phenanthren-1′-yl)phenyl]but-1-en-3-ynyl}benzoic acid methyl ester] | – | –
2 | 0.08 nM | 0.08 nM | CC(C)CO/N=C/C#Cc1ccc([C@H]2C[C@@]3(C)C(CC[C@@]3(O)C(F)(F)C(F)(F)F)C3CCC4=CC(=O)CCC4=C32)cc1 (mixture of isomers) [Example 26, (E/Z)-[4-((8S,11R,13S,14S,17S)-17-hydroxy-13-methyl-3-oxo-17-pentafluoroethyl-2,3,6,7,8,11,12,13,14,15,16,17-dodecahydro-1H-cyclopenta[a]phenanthren-1′-yl)phenyl]propynal O-isobutyl oxime] | – | –
3 | 0.97 nM | 2 nM | C[C@]12C[C@H](c3ccc(C#CC=NOCc4ccc(Cl)c(Cl)c4)cc3)C3=C4CCC(=O)C=C4CCC3C1CC[C@@]2(O)C(F)(F)C(F)(F)F (mixture of isomers) [Example 27, (E/Z)-[4-((8S,11R,13S,14S,17S)-17-hydroxy-13-methyl-3-oxo-17-pentafluoroethyl-2,3,6,7,8,11,12,13,14,15,16,17-dodecahydro-1H-cyclopenta[a]phenanthren-1′-yl)phenyl]propynal O-(3,4-dichlorobenzyl) oxime] | – | –
4 | – | – | COC(=O)C#Cc1ccc([C@H]2C[C@@]3(C)C(CC[C@@]3(O)C(F)(F)C(F)(F)F)C3CCC4=CC(=O)CCC4=C32)cc1 (stereo partly drawn) [Example 3, [4-((8S,11R,13S,14S,17S)-17-hydroxy-13-methyl-3-oxo-17-pentafluoroethyl-2,3,6,7,8,11,12,13,14,15,16,17-dodecahydro-1H-cyclopenta[a]phenanthren-1′-yl)phenyl]propynoic acid methyl ester] | 1.8 nM | 1.2 nM
5 | 13 nM | 12 nM | CCOC(=O)/C=C/C#Cc1ccc([C@H]2C[C@@]3(C)C(CC[C@@]3(O)C(F)(F)C(F)(F)F)C3CCC4=CC(=O)CCC4=C32)cc1 (stereo partly drawn) [Example 6, (E)-5-[4-((8S,11R,13S,14S,17S)-17-hydroxy-13-methyl-3-oxo-17-pentafluoroethyl-2,3,6,7,8,11,12,13,14,15,16,17-dodecahydro-1H-cyclopenta[a]phenanthren-1′-yl)phenyl]pent-2-en-4-ynoic acid ethyl ester] | – | –
6 | 0.8 nM | 0.9 nM | CCOC(=O)C=CC=CC#Cc1ccc([C@H]2C[C@@]3(C)C(CC[C@@]3(O)C(F)(F)C(F)(F)F)C3CCC4=CC(=O)CCC4=C32)cc1 (stereo partly drawn) [Example 7, 7-(2E/Z,4E/Z)-[4-((8S,11R,13S,14S,17S)-17-hydroxy-13-methyl-3-oxo-17-pentafluoroethyl-2,3,6,7,8,11,12,13,14,15,16,17-dodecahydro-1H-cyclopenta[a]phenanthren-1′-yl)phenyl]hepta-2,4-dien-6-ynoic acid ethyl ester] | – | –
7 | 0.32 nM | 0.41 nM | CC(C)(C)OC(=O)COCC#Cc1ccc([C@H]2C[C@@]3(C)[C@@H](CC[C@@]3(O)C(F)(F)C(F)(F)F)[C@@H]3CCC4=CC(=O)CCC4=C32)cc1 [Example 8, {3-[4-((8S,11R,13S,14S,17S)-17-hydroxy-13-methyl-3-oxo-17-pentafluoroethyl-2,3,6,7,8,11,12,13,14,15,16,17-dodecahydro-1H-cyclopenta[a]phenanthren-11-yl)phenyl]prop-2-ynyloxy}acetic acid tert-butyl ester] | – | –
